Four cell lines from the supplement of paper PMC10307832 can be followed below.

Assay in all cases: relative viability (nuclei count vs DMSO), 5 days (fraction); higher = more cells survive
Compound in test [1]: Nc1ncn([C@H]2C[C@H](O)[C@@H](CO)O2)c(=O)n1 [Decitabine] + CCNC(=O)c1noc(-c2cc(C(C)C)c(O)cc2O)c1-c1ccc(CN2CCOCC2)cc1 [Luminespib] (partner 0.01 µM)
The method, boiled down:
(§1)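 A single step with final 0.05% Triton X-100, 1% formaldehyde and 1 ug/ml Hoechst fixed the cells and stained nuclei 5 days after treatment. Lung cancer cell lines in 1536-well plates had been treated by pin tool the day after seeding with one drug alone or a fixed anchor-drug dose plus five library-drug doses (not always all listed) in √10 steps, and nuclei were counted on 4× images. Relative viability is the ratio of nuclei in treated wells to nuclei in vehicle wells, taken as the median of duplicate plates.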

Compound in test [2]: Nc1ncn([C@H]2C[C@H](O)[C@@H](CO)O2)c(=O)n1 [Decitabine] + N=C(N)NC(=N)NCCc1ccccc1 [Phenformin] (partner 250 µM)
The method, boiled down: as §1

Compound in test [3]: O=C(C[C@H]1NCCC[C@@H]1O)Cn1cnc2cc(Br)c(Cl)cc2c1=O (racemic) [Halofuginone] + COc1cccc2cc(-c3nc([C@H]4CC[C@H](C(=O)O)CC4)n4ncnc(N)c34)[nH]c12 [OSI-027] (partner 0.5 µM)
The method, boiled down: as §1

Compound in test [4]: O=C(C[C@H]1NCCC[C@@H]1O)Cn1cnc2cc(Br)c(Cl)cc2c1=O (racemic) [Halofuginone] + C[C@@H](Oc1cc(-c2cnn(C3CCNCC3)c2)cnc1N)c1c(Cl)ccc(F)c1Cl [Crizotinib] (partner 1 µM)
The gist of the method:
as §1

NCI-H1355: the relative viability in test [1] (first compound 0.04 µM) was determined as 0.538; in test [1] (first compound 0.1265 µM), 0.483; in test [1] (first compound 0.4 µM) it was 0.454; in test [1] (first compound 1.265 µM), 0.298; in test [1] (first compound 4 µM), 0.258; in test [2] (first compound 0.04 µM) it was 0.432. Moreover, the relative viability came out at 0.385 in test [2] (first compound 0.1265 µM); 0.338 in test [2] (first compound 0.4 µM); 0.277 in test [2] (first compound 1.265 µM); 0.323 in test [2] (first compound 4 µM); 0.41 in test [3] (first compound 0.001 µM); 0.423 in test [3] (first compound 0.003162 µM). For the same cell line, the relative viability in test [3] (first compound 0.01 µM) is 0.393; in test [3] (first compound 0.03162 µM), 0.463; in test [3] (first compound 0.1 µM) it was 0.303; in test [4] (first compound 0.001 µM), 1.04; in test [4] (first compound 0.003162 µM) it was 1.04; in test [4] (first compound 0.01 µM), 1.08. Further, the relative viability worked out at 1.08 in test [4] (first compound 0.03162 µM) and 0.921 in test [4] (first compound 0.1 µM).

In the case of NCI-H1437, the relative viability in test [1] (first compound 0.04 µM) turned out to be 0.995; in test [1] (first compound 0.1265 µM), 0.825; in test [1] (first compound 0.4 µM) it was 0.633; in test [1] (first compound 1.265 µM), 0.445; in test [1] (first compound 4 µM) it was 0.372; in test [2] (first compound 0.04 µM), 0.29. Also, the relative viability in test [2] (first compound 0.1265 µM) is 0.311; in test [2] (first compound 0.4 µM) it was 0.209; in test [2] (first compound 1.265 µM), 0.233; in test [2] (first compound 4 µM), 0.26; in test [3] (first compound 0.001 µM), 0.905; in test [3] (first compound 0.003162 µM), 0.933. The relative viability in test [3] (first compound 0.01 µM) is 0.871; in test [3] (first compound 0.03162 µM), 0.847; in test [3] (first compound 0.1 µM) it was 0.717; in test [4] (first compound 0.001 µM) it was 0.935; in test [4] (first compound 0.003162 µM) it was 0.918; in test [4] (first compound 0.01 µM), 0.807. For the same cell line, the values for the relative viability in test [4] (first compound 0.03162 µM) and in test [4] (first compound 0.1 µM) were 0.73 and 0.841, respectively.

As for NCI-H1563, the relative viability in test [1] (first compound 0.04 µM) was determined as 0.564; in test [1] (first compound 0.1265 µM), 0.508; in test [1] (first compound 0.4 µM) it was 0.428; in test [1] (first compound 1.265 µM), 0.545; in test [1] (first compound 4 µM) it was 0.495; in test [2] (first compound 0.04 µM), 0.631. For the same cell line, the relative viability came out at 0.75 in test [2] (first compound 0.1265 µM); 0.764 in test [2] (first compound 0.4 µM); 0.658 in test [2] (first compound 1.265 µM); 0.74 in test [2] (first compound 4 µM); 0.859 in test [3] (first compound 0.001 µM); 0.735 in test [3] (first compound 0.003162 µM). In addition, the relative viability in test [3] (first compound 0.01 µM) was found to be 0.837; in test [3] (first compound 0.03162 µM) it was 0.612; in test [3] (first compound 0.1 µM), 0.527; in test [4] (first compound 0.001 µM), 0.868; in test [4] (first compound 0.003162 µM) it was 0.835; in test [4] (first compound 0.01 µM), 0.891. The relative viability came to 0.555 in test [4] (first compound 0.03162 µM) and 0.452 in test [4] (first compound 0.1 µM).

As for NCI-H1650, the relative viability stood at 0.188 in test [1] (first compound 0.04 µM); 0.182 in test [1] (first compound 0.1265 µM); 0.194 in test [1] (first compound 0.4 µM); 0.201 in test [1] (first compound 1.265 µM); 0.179 in test [1] (first compound 4 µM); 0.309 in test [2] (first compound 0.04 µM). Also, the relative viability in test [2] (first compound 0.1265 µM) was determined as 0.386; in test [2] (first compound 0.4 µM), 0.303; in test [2] (first compound 1.265 µM) it was 0.246; in test [2] (first compound 4 µM), 0.361; in test [3] (first compound 0.001 µM), 0.653; in test [3] (first compound 0.003162 µM), 0.634. Also, the relative viability is 0.639 in test [3] (first compound 0.01 µM); 0.774 in test [3] (first compound 0.03162 µM); 0.141 in test [3] (first compound 0.1 µM); 1.05 in test [4] (first compound 0.001 µM); 1.05 in test [4] (first compound 0.003162 µM); 0.951 in test [4] (first compound 0.01 µM). Also, the relative viability in test [4] (first compound 0.03162 µM) stood at 0.823; in test [4] (first compound 0.1 µM) it was 0.59.
